Assay results published in patent US12391671B2, “Allosteric EGFR inhibitors and methods of use thereof” (Dana-Farber Cancer Institute, Inc., priority 2019, dated 2025).
Where a name gives a salt, the structure may show the parent alone. Read-outs that look alike come from different tables or passages of the source.

How the values were obtained:
EGFR L858R/T790M = EGFR L858R/T790M (Homo sapiens (Human), UniProt P00533, L858R/T790M); assay: HTRF-based EGFR biochemical assay (L858R/T790M); details: 100 μM ATP, enzyme 0.02 nM
Chain of EGFR L858R/T790M (P00533 25-1210 T790M/L858R): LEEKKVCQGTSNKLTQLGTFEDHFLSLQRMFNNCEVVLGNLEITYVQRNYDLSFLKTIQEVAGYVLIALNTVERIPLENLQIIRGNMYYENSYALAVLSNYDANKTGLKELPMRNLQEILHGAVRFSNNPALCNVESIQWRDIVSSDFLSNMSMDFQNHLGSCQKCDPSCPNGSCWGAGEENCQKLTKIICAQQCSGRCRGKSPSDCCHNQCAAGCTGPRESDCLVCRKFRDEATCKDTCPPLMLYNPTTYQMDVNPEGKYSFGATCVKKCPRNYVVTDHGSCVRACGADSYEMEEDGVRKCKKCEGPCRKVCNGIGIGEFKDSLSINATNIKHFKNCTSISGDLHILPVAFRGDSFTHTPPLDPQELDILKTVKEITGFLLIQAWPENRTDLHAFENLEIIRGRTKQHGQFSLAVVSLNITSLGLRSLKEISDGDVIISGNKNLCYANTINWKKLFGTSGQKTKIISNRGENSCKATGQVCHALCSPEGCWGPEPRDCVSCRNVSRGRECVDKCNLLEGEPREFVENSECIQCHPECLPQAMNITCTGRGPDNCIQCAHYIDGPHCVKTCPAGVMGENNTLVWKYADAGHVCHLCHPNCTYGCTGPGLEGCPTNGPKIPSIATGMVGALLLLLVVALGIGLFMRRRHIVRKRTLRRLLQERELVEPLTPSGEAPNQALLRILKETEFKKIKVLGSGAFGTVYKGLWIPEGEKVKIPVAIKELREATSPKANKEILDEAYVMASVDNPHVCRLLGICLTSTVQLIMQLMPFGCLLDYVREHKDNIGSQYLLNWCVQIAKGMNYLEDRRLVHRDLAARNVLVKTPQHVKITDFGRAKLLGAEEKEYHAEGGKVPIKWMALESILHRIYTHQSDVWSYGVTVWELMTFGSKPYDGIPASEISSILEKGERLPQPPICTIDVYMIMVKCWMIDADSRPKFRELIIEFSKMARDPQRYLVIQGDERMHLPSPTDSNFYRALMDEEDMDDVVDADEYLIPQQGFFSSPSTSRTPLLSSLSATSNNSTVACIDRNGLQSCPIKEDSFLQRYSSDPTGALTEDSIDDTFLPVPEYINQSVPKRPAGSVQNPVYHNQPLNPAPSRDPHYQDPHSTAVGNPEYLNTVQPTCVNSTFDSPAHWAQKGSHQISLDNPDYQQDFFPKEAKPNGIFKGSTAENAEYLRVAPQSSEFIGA
Procedure: (§1) Example 25: HTRF-Based EGFR Biochemical Assays
(§2) EGFR biochemical activity measurements were carried out using the homogeneous time-resolved fluorescence (HTRF) assay (Cisbio), inhibitors and DMSO normalizations were first dispensed to empty black low-volume 384-well plates (Corning) with 0300 digital liquid dispenser (HP). All reactions were carried out at room temperature and solutions were added to plates with a Multidrop Combi Reagent Dispenser (ThermoFisher). The reaction mixture (10 μL final volume) contained 1 μM tyrosine kinase peptide-biotin substrate and mutant EGFR in a reaction buffer (50 mM HEPES pH 7.0, 5 mM MgCl2, 1 mM MnCl2, 0.01% BSA, 2 mM TCEP, 0.1 mM NaVO4). Enzyme concentrations were adjusted to accommodate varying kinase activities (L858R 0.1 nM, L858R/T790M 0.02 nM). Enzyme reaction solution (2× concentrations, 5 μL) was added to 384-well plates containing compounds and incubated for 30 mins. Enzyme reactions were initiated with the addition of 5 μL of ATP to a final concentration of 100 μM and reacted for 20 mins. Reactions were quenched with the addition of 10 μL of phospho-tyrosine antibody-Europium(III) cryptate (1-to-180 volume ratio) and Streptavidin-XL665 (46.7 nM) in EDTA-containing detection buffer, then incubated at room temperature for 1 hour, and read with a PHERAstar plate reader (excitation=337 nm, emission=620 nm and 665 nm).

EGFR L858R = EGFR L858R (Homo sapiens (Human), UniProt P00533, L858R); assay: HTRF-based EGFR biochemical assay (L858R); details: 100 μM ATP, enzyme 0.1 nM
Chain of EGFR L858R (P00533 25-1210 L858R): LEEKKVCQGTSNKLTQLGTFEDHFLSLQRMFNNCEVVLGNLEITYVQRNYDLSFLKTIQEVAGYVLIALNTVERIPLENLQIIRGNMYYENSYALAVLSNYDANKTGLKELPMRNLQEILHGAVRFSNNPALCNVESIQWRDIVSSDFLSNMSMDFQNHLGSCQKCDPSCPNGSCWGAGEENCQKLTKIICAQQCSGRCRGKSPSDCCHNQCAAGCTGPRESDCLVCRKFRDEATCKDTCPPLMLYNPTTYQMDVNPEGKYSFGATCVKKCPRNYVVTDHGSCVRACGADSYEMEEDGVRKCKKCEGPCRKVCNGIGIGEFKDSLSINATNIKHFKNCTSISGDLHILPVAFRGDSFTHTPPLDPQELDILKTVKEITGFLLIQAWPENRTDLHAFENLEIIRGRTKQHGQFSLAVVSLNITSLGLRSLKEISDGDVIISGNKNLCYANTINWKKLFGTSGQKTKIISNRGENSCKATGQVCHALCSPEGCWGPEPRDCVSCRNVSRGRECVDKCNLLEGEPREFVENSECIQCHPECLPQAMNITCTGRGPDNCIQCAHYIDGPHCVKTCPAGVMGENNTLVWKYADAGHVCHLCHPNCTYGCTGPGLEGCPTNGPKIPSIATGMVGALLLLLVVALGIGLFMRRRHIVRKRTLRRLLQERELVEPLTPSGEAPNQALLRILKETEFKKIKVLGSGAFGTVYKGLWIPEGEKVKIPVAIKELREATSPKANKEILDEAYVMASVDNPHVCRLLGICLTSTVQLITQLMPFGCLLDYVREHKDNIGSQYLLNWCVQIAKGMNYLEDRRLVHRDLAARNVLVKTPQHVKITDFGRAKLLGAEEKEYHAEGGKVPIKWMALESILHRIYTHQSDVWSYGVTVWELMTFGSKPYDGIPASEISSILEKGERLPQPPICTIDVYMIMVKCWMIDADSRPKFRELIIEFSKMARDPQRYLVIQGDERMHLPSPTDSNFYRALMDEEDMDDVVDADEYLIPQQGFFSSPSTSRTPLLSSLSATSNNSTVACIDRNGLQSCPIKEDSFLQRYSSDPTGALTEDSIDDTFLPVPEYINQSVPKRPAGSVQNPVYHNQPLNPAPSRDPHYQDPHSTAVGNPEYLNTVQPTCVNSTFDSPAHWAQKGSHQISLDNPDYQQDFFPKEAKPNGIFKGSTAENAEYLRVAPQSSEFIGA
Procedure: as §1, §2

[1] = test system: EGFR mutant L858R/T790M Ba/F3 cells; assay: Ba/F3 cell proliferation model (Cell Titer Glo), EGFR L858R/T790M; type: cell-based, murine; details: 72 hours
Excerpt: Example 26: Ba/F3 Cell Proliferation Models
The EGFR mutant L858R and L858R/T790M Ba/F3 cells have been previously described (Zhou, W., et al. Nature 462, 2009, 1070-1074). All cell lines were maintained in RPM 1640 (Cellgro; Mediatech Inc., Herndon. CA) supplemented with 10% FBS, 100 units/mL penicillin, 100 units/mL streptomycin. The EGFR I941R mutation was introduced via site directed mutagenesis using the Quick Change Site-Directed Mutagenesis kit (Stratagene; La Jolla, CA) according to the manufacturer's instructions. All constructs were confirmed by DNA sequencing. The constructs were shuttled into the retroviral vector JP1540 using the Cre-recombination system (Agilent Technologies, Santa Clara, CA). Ba/F3 cells were then infected with retrovirus per standard protocols, as described previously (Zhou, et al, Nature 2009). Stable clones were obtained by selection in puromycin (2 μg/ml).
Growth and inhibition of growth was assessed by the Cell Titer Glo® assay (Promega, Madison, WI) and was performed according to the manufacturer's instructions. The Cell Titer Glo® assay is a luminescence-based method used to determine the number of viable cells based on quantitation of the ATP present, which is directly proportional to the amount of metabolically active cells present. Ba/F3 cells of different EGFR genotypes were exposed to compounds as a single agent or in combination with 1 μg/mL cetuximab for 72 hours and the number of cells used per experiment was determined empirically as has been previously established (Zhou, et al., Nature 2009). All experimental points were set up in triplicates in 384-well plates and all experiments were repeated at least three times. […] The curves were fitted using a non-linear regression model with a sigmoidal dose response.

[2] = Mus musculus, BaF3, single agent, read-out: Cell IC50 BaF3 EGFR L858R/T790M
[3] = in combination with 1 μg/mL cetuximab, read-out: Cell IC50 BaF3 EGFR L858R/T790M (+cetux.)

| Structure (SMILES) | IC50 (EGFR L858R/T790M) | IC50 (EGFR L858R) | also measured |
| --- | --- | --- | --- |
| CN1CCC2(c3ccc(-c4cc(F)c5c(=O)n(C(c6nc7ccccc7[nH]6)c6cc(F)ccc6O)ccc5c4)cc3)CC2C1 (stereo not drawn) [Compound 110, 2-[1H-Benzimidazol-2-yl-(5-fluoro-2-hydroxy-phenyl)methyl]-8-fluoro-6-4-(3-methyl-3-azabicyclo[4.1.0]-heptan-6-yl)phenyl]isoquinolin-1-one; dihydrochloride] | 0.6 nM | 3 nM | – |
| CN1CCC(c2ccc(-c3cc(F)c4c(=O)n(C(c5nc6ccccc6[nH]5)c5cc(F)ccc5O)ccc4c3)cc2F)CC1 (stereo not drawn) [Compound 111, 2-[1H-Benzimidazol-2-yl-(5-fluoro-2-hydroxy-phenyl)methyl]-8-fluoro-6-[3-fluoro-4-(1-methyl-4-piperidyl)-phenyl]isoquinolin-1-one; dihydrochloride] | 0.6 nM | 3 nM | – |
| Cc1c[nH]c([C@@H](c2cc(F)ccc2O)N2Cc3ccc(-c4ccc(C5CCN(C)CC5)cc4)c(F)c3C2=O)n1 (single isomer, unassigned) [Compound 94] | 2 nM | 1 nM | – |
| Cc1c[nH]c([C@H](c2cc(F)ccc2O)N2Cc3ccc(-c4ccc(C5CCN(C)CC5)cc4)cc3C2=O)n1 (single isomer, unassigned) [Compound 105] | 49 nM | 65 nM | – |
| CN1CCC(c2ccc(-c3ccc4c(=O)n([C@H](c5nc6ccccc6[nH]5)c5cc(F)ccc5O)ccc4c3)cc2)CC1 (single isomer, unassigned) [Compound 115] | 157 nM | 132 nM | – |
| CN1CCC(c2ccc(-c3cc(F)c4c(=O)n([C@H](c5nc6ccccc6[nH]5)c5cc(F)ccc5O)ccc4c3)cc2)CC1 (single isomer, unassigned) [Compound 117, 2-[1H-Benzimidazol-2-yl-(5-fluoro-2-hydroxy-phenyl)methyl-8-fluoro-6-[3-fluoro-4-(1-methyl-4-piperidyl)phenyl]isoquinolin-1-one; dihydrochloride] | – | – | IC50 (EGFR L858R/T790M; dihydrochloride): 81 nM; IC50 (EGFR L858R; dihydrochloride): > 100 nM |
| CN1CCC(c2ccc(-c3cc(F)c4c(=O)n([C@H](c5nc6ccccc6[nH]5)c5cc(F)ccc5O)ccc4c3)cc2)CC1 (single isomer, unassigned) [Compound 066] | 3 nM | 14 nM | – |
| COc1cc2cn(C(c3nc4ccccc4[nH]3)c3cc(F)ccc3O)nc2cc1-c1ccc(C2CCN(C)CC2)cc1 (stereo not drawn) [Compound 099, 2-[1H-Benzimidazol-2-yl-[5-methoxy-6-[4-(1-methyl-4-piperidyl)phenyl]indazol-2-yl]methyl]-4-fluoro-phenol] | 8 nM | 10 nM | – |
| CN1CCC(c2ccc(-c3cc4nn(C(c5nc6ccccc6[nH]5)c5cc(F)ccc5O)cc4cc3O)cc2)CC1 (stereo not drawn) [Compound 097, 2-[1H-Benzimidazol-2-yl-(5-fluoro-2-hydroxy-phenyl)methyl]-6-[4-(1-methyl-4-piperidyl)phenyl]indazol-5-ol] | 36 nM | 16 nM | – |
| [2H][C@](c1nc2ccccc2[nH]1)(c1cc(F)ccc1O)N1Cc2ccc(-c3ccc(C4CCN(C)CC4)cc3)cc2C1=O (single isomer, unassigned) [Compound 038] | – | – | IC50 [1, 2]: 930 nM; IC50 [1, 3]: 41 nM |
| Cc1c[nH]c([C@@H](c2cc(F)ccc2O)N2Cc3ccc(-c4ccc(C5CCN(C)CC5)cc4)cc3C2=O)n1 (single isomer, unassigned) [Compound 104] | 2 nM | 1 nM | – |
| CN1CCC(c2ccc(-c3ccc4c(c3)C(=O)N([C@H](c3nc5ccccc5[nH]3)c3cc(F)ccc3O)C4)cc2)CC1 (single isomer, unassigned) [Compound 037] | 0.5 nM | 1.4 nM | – |
| O=C1c2cc(-c3ccc(N4CCNCC4)cc3)ccc2CN1C(c1nc2ccccc2[nH]1)c1cc(F)ccc1O (stereo not drawn) [Compound 021, 2-[1H-Benzimidazol-2-yl-(5-fluoro-2-hydroxy-phenyl)methyl]-6-(4-piperazin-1-yiphenyl)isoindolin-1-one;hydrochioride] | – | – | IC50 [1, 2]: 1650 nM; IC50 [1, 3]: 20 nM |
| [2H][C@@](c1nc2ccccc2[nH]1)(c1cc(F)ccc1O)N1Cc2ccc(-c3ccc(C4CCN(C)CC4)cc3)cc2C1=O (single isomer, unassigned) [Compound 037] | – | – | IC50 [1, 2]: 160 nM; IC50 [1, 3]: 4 nM |
| Cc1c[nH]c([C@H](c2cc(F)ccc2O)N2Cc3ccc(-c4ccc(C5CCN(C)CC5)cc4)c(F)c3C2=O)n1 (single isomer, unassigned) [Compound 095] | 59 nM | 92 nM | – |
| CN1CCC(c2ccc(-c3ccc4c(c3)C(=O)N(C(c3nc5ccccc5[nH]3)c3cccc(Cl)c3O)C4)cc2)CC1 (stereo not drawn) [Compound 043, 2-[1H-benzimidazol-2-yl-(3-chloro-2-hydroxy-phenyl)-methyl]-6-[4-(1-methyl-4-piperidyl)phenyl]isoindolin-1-one; dihydrochloride] | – | – | IC50 [1, 2]: 4940 nM; IC50 [1, 3]: 580 nM |

Continued, in another order:

| IC50 (EGFR L858R/T790M) | IC50 (EGFR L858R) | Structure (SMILES) | also measured |
| --- | --- | --- | --- |
| 6 nM | 18 nM | CN1CCC(c2ccc(-c3ccc4c(c3)C(=O)N([C@@H](c3nc5ccccc5[nH]3)c3cc(F)ccc3O)C4)cc2)CC1 (single isomer, unassigned) [Compound 038] | – |
| 2 nM | 4 nM | CN1CCC(c2ccc(-c3ccc4c(=O)n(C(c5nc6ccccc6[nH]5)c5cc(F)ccc5O)ccc4c3)cc2F)CC1 (stereo not drawn) [Compound 109, 2-[1H-Benzimidazol-2-yl-(5-fluoro-2-hydroxy-phenyl)methyl]-6-[3-fluoro-4-(1-methyl-4-piperidyl)phenyl]isoquinolin-1-one; dihydrochloride] | – |
| 4 nM | 11 nM | CN1CCC(c2ccc(-c3ccc4c(=O)n([C@@H](c5nc6ccccc6[nH]5)c5cc(F)ccc5O)ccc4c3)cc2)CC1 (single isomer, unassigned) [Compound 067] | – |
| 0.8 nM | 3 nM | Cc1c(-c2ccc(C3CCN(C)CC3)cc2)ccc2cn(C(c3nc4ccccc4[nH]3)c3cc(F)ccc3O)nc12 (stereo not drawn) [Compound 096, 2-[1H-Benzimidazol-2-yl-[7-methyl-6-[4-(1-methyl-4-piperidyl)phenyl]indazol-2-yl]methyl]-4-fluoro-phenol; dihydrochloride] | – |
| 232 nM | 219 nM | CN1CCC(c2ccc(-c3ccc4c(c3)C(=S)N([C@H](c3nc5ccccc5[nH]3)c3cc(F)ccc3O)C4)cc2)CC1 (single isomer, unassigned) [Compound 084] | – |
| 4 nM | 3 nM | Cc1cnc(C(c2cc(F)ccc2O)N2Cc3ccc(-c4ccc(C5CCN(C)CC5)cc4)c(F)c3C2=O)[nH]1 (stereo not drawn) [Compound 093, 7-Fluoro-2-[(5-fluoro-2-hydroxy-phenyl)-(5-methyl-1H-imidazol-2-yl)methyl]-6-[4-(1-methyl-4-piperidyl)phenyl]isoindolin-1-one] | – |
| 4 nM | 6 nM | Cc1cc2cn(C(c3nc4ccccc4[nH]3)c3cc(F)ccc3O)nc2cc1-c1ccc(C2CCN(C)CC2)cc1 (stereo not drawn) [Compound 098, 2-[1H-Benzimidazol-2-yl-[5-methyl-6-[4-(1-methyl-4-piperidyl)phenyl]-indazol-2-yl]methyl]-4-fluoro-phenol; dihydrochloride] | – |
| 4 nM | 6 nM | CN1CCC(c2ccc(-c3ccc4c(=O)n(C(c5nc6c(F)cccc6[nH]5)c5cc(F)ccc5O)ccc4c3)cc2)CC1 (stereo not drawn) [Compound 102, 2-((4-Fluoro-1H-benzo[d]imidazol-2-yl)(5-fluoro-2-hydroxyphenyl)methyl)-6-(4-(1-methylpiperidin-4-yl)phenyl)isoquinolin-1(2H)-one] | – |
